The text below walks through data of patent US20200390100A1, “SUBSTITUTED N-HETEROCYCLYL- AND N-HETEROARYL-TETRAHYDROPYRIMIDINONES AND THE SALTS THEREOF, AND THE USE OF SAME AS HERBICIDAL ACTIVE SUBSTANCES” (Bayer Aktiengesellschaft, priority 2017, published 2020).

This experiment concerns the target T1, photosystem II (PS II) (Spinacia oleracea, UniProt P69560).
T1 construct: the chloroplasts were osmotically ruptured and the thylakoid membranes were then obtained by centrifugation; from tissue; host or cells: fresh spinach leaves; thylakoid membrane preparation from isolated chloroplasts
In words: Measurement of PS II activity in thylakoid membranes (DCPIP reduction). The experiment is classed as biochemical, spinach. The conditions noted are these: PS II activity in spinach thylakoid membranes, Table E1; read-out: Effect. In outline:
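Thylakoid membranes from osmotically ruptured spinach chloroplasts in 50 mM phosphate pH 6.8, 10 mM KCl; compounds added from 100 μM DMSO solution (2.5% DMSO final), 120 μM DCPIP final. DCPIP reduction under light tracked as absorbance decrease at 595 nm over 10 min at 22 °C; % inhibition binned, metribuzin as plate standard.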

In the case of `CC1CC(O)N(c2cc(C(C)(C)C)on2)C(=O)N1C` (stereo not shown) [I.41-162, 1-(5-tert-Butyl-1,2-oxazol-3-yl)-6-hydroxy-3,4-dimethyltetrahydropyrimidin-2(1H)-one], the inhibition at 100 µM is 70 to 90%.
